# Results from patent US9211313B2, “Methods and compound to inhibit Ca2+ permeable cation conductance” (priority 2011, dated 2015).
# Like-named read-outs stand apart in the source and are kept apart here. Where a SMILES comes first, the peptide text is derived from it. Bridges are numbered along the chain shown (N, C = ends). [ ]: non-standard residue; d: D form.
# What was measured:
# human SS red cells = test: Fluo-3 fluorescence measurement of [Ca2+]i after LPA; format: cell-based; details: 5 μM; 75 SS red cells
# Description: Fluorescence measurements of cytosolic [Ca^2+] ([Ca^2+]i): After removal of plasma and buffy coat by aspiration, human or mouse red cells were washed three times at room temperature and suspended in modified Hank's solution containing (in mM), 137 NaCl, 5.4 KCl, 1 CaCl2, 1 MgCl2, 0.8 NaK phosphate, 5.6 glucose, and 10 Na HEPES, pH 7.4. Dilute cell suspensions were settled on polylysine-coated coverslips forming the bottom of an open perfusion chamber (2.5 cm diameter, 1 cm depth) and washed again 3 times.
# Measurement of relative changes in [Ca^2+]i by Fluo-3 fluorescence emission was previously validated in intact human (Yang et al. 2000, Blood, 95(7):2421-2425; Andrews et al. 2002, Blood, 199(9):3392-3399) and mouse red cells (Akel et al. 2007, Amer. J. Physiol., 292(5):C1759-1767). Attached red cells were loaded in the dark with the fluorescent non-ratiometric Ca^2+ indicator Fluo-3-AM (10 μM, Molecular Probes, Eugene, Oreg.) at 37° C. for 1 hr, then washed and incubated 15 min further to allow de-esterification of intracellular dye. […] Fluorescence emission (proportional to [Ca^2+]i) from a 535ds20 bandpass filter was collected from all attached single cells within the arbitrarily selected visual field. […]
# [1] = system: LPA-induced cation conductance in human SS red cells; test: On-cell patch clamp of LPA-induced cation conductance; format: cell-based; details: 5 μM; Na methanesulfonate in bath and pipette, -Vp=-50 mV; n=8
# Description: On-cell patch clamp: Borosilicate pipettes (Corning 7052) pulled with a Narishige two stage puller or a Sutter P97 puller and fire-polished to resistances of 10-20 MΩ were front-filled and then backfilled. Symmetric bath and pipette solutions for studies of seal resistance stability during reversibility tests of the deoxygenation-activated conductance in SAD mouse red cells were (in mM) 140 NaCl, 4 KCl, 1 CaCl2, 1 MgCl2, 10 Na HEPES, pH 7.4. These conditions yielded tight seals in 13% of patch attempts on SAD cells. For study of deoxygenation-induced monovalent cation permeation in the absence of bath Ca^2+ and Mg^2+ recorded in SAD and Berkeley mouse cells and in human cells, symmetric bath and pipette solutions contained (in mM) 150 Na methanesulfonate, 10 Na EDTA, and 10 Na HEPES, pH 7.4. These conditions yielded tight seals in 16% of patch attempts on SAD mouse red cells, 26% of attempts on Berkeley mouse cells, and 30% of attempts on human SS cells. For study of Ca^2+ permeation in human SS cells, bath and pipette solutions contained (in mM) 100 CaCl2, 10 Na HEPES, pH 7.4. These conditions yielded tights seals on 44% of attempts. For all conditions tested in human red cells, 70% of tight seals were sustained through the solution change accompanying deoxygenation to allow recording of current activity.
# On-cell patch currents were recorded with the Axopatch 1-D amplifier (Axon Instruments/Molecular Devices, Sunnyvale, Calif.). Holding potential was −Vp=−50 mV (expressed as the negative of the pipette potential (e.g., equivalent to the intracellular potential with respect to the pipette). To determine current-voltage relationships (I-V curves) in Fetchex or Clampex (PCLAMP, Axon Instruments), the realtime control window in gap-free mode was used to record current traces of 10-30 sec duration at holding potentials ranging from −100 to +100 mV, in 25 mV increments. The bath reference electrode was a silver chloride wire with a 3 M KCl agar bridge. Data was filtered at 500 Hz, digitized at 2 kHz by Clampex, and analyzed offline by Fetchan and Pstat or by Clampfit subroutines of PCLAMP. Holding potentials in on-cell patch experiments were expressed as −Vp, the negative of the pipette potential.
# Deoxygenation-activated flickering cation conductance observed in human SS cells contrasted with the prolonged channel openings produced by 5 μM LPA (FIG. 10A). In SS cells, LPA increased NPo […], from 0.04±0.03 to 0.82±0.18 (n=8, p<0.001; Na methanesulfonate in bath and pipette, −Vp=−50 mV; FIG. 10B). LPA-induced cation conductance was 96% inhibited by 100 uM dipyridamole in the pipette, and 97% inhibited by 1 μM GsMTx-4 in the pipette (both n=4).
# mice = test: Acute IV toxicity, observed for 1 hour, mice; format: in vivo, mouse
# Experimental: In another experiment, mice were IV injected with D-GsMTx4 at 9, 5, 3, and 1 mg/kg concentrations and observed for 1 hour at Covance Drug Development Company. There were 3 mice injected per concentration. […] All mice appeared normal by 1 hour.
# ferrets = test: Cardiovascular hemodynamics and EKG after IV injection in telemetered animals; format: in vivo, ferret; details: IV 0.2 to 5 mg/kg
# Experimental: In another study, Cardiovascular hemodynamics and EKG was assessed after IV injection of D-GsMTx4 into telemetered free ranging ferrets in 4 cohorts of 3 animals over concentration ranging from 0.2 to 5 mg/kg at Covance Drug Development Company. This study was one of the main recommendations given us by the TACT advisory panel in Spring 2011. Particular attention was given to QT intervals, arterial pressure (mean, systolic and diastolic) and core temperature for 24 hours following IV injection.
# neurite = test: Neurite initiation and neurite length; format: cell-based
# Description: The peptide GsMTx4 of the present invention can be prepared for pharmaceutical use by incorporation with a pharmaceutically acceptable carrier or diluent. The peptide can be formulated into tablets, capsules, caplets and the like. Suitable carriers for tablets include calcium carbonate, starch, lactose, talc, magnesium stearate and gum acacia. The peptide can also be formulated for oral, parenteral or intravenous administration in aqueous solutions, aqueous alcohol, glycol or oil solutions or emulsions. The peptide can also be formulated for inhaling by encapsulating to facilitate alveolar absorption as has been done for insulin (Inhale Therapeutic Systems, San Carlos, Calif., inhale.com). Pharmaceutical compositions suitable for such routes of administration are well known in the art. For example, suitable forms and compositions of pharmaceutical preparations can be found in Remington's Pharmaceutical Science, 1980, 15^thed. Mack Publishing Co., Easton, Pa. Thus, the peptide GsMTx4 can be administered orally, subcutaneously, parenterally, intravenously, intramuscularly or intranasally. The peptide may also be applied to medical devices that will come into contact blood. Both L and D enantiomers of GsMTx4's and its variants can be used for the present invention. We have previously shown that both L- and D-GsMTx4 block mechanosensitive channel (MSC) activity. Although, we have noted differences in the effects of these enantiomers, both forms are effective. For example, we have observed that the ability of the mirror image form (D-enantiomer) to inhibit mechanically activated ion channels is similar to the wild type peptide (L-form) (Suchyna et al 2004). […] Thus, both L and the D forms can be used in the present invention.
# rats = test: Acute IV toxicity, observed for 1 hour, rats; format: in vivo, rat
# Experimental: In another experiment, rats were IV injected with D-GsMTx4 at 9, 3, and 1 mg/kg concentrations and observed for 1 hour at Covance Drug Development Company. There were 3 rats injected for 3 and 1 mg/kg and 1 rat injected for 9 mg/kg concentration.
# [2] = Tissue distribution over 24 hrs after a single dosing; format: in vivo, mouse; details: for Tmax: mouse, blood, read-out: time of peak blood concentration
# Experimental: This example describes the tissue distribution of GsMTx-4. Mice were dosed with D-GsMTx4 by three methods of administration and sacrificed at different time points over 24 hrs by Covance Drug Development Company. Tissues were harvested and sent frozen to Custom Biologics Company for concentration analysis. There were three animals per cohort and 7 time points distributed approximately logarithmically over 24 hours following a single dosing. We followed the distribution of peptide for three routes of administration −5 mg/kg IV, 50 mg/kg subQ and 50 mg/kg GI lavage. […] We sampled 7 different tissues including EDL muscle, diaphragm, brain, bladder, heart, liver and blood. […] Under both methods the peptide peaked in all tissues at about 2 hrs and plateaued for the 24 hr experiment duration. […] The distribution followed a pattern reflecting the relative capillary permeability of the tissue. […] Since the peptide has a strong partition coefficient to lipids, the mean concentration in the tissues is much lower than that in the membrane, the site of action.
# [3] = system: mechanosensitive channel (MSC); details: cited from earlier work
# mdx mice = test: Toxicity with daily subQ dosing for 30 days; format: in vivo, mouse; details: 5 mg/kg subQ daily, 30 days (month long)
# Experimental: This example describes toxicity studies with GsMTx-4. In one experiment, D-GsMTx4 was administered to 60 mdx mice and controls by daily subQ dosing at 5 mg/kg for 30 days at the Washington D.C. Wellstone center.
# [4] = target: lysophosphatidic acid (LPA)-activated cation-permeable channel in human SS red cells
# [5] = target: deoxygenation-induced Ca2+-permeable cation conductance (Psickle-like)
# KCa3.1 = target: T1, KCa3.1 (Homo sapiens, UniProt O15554); details: 50 nM; cited from earlier work
# T1 construct: KCa3.1 activity stimulated in intact human AA cells by 1 μM A23187; endogenous in cells; host or cells: intact human AA red blood cells
# T1 sequence (O15554 whole entry): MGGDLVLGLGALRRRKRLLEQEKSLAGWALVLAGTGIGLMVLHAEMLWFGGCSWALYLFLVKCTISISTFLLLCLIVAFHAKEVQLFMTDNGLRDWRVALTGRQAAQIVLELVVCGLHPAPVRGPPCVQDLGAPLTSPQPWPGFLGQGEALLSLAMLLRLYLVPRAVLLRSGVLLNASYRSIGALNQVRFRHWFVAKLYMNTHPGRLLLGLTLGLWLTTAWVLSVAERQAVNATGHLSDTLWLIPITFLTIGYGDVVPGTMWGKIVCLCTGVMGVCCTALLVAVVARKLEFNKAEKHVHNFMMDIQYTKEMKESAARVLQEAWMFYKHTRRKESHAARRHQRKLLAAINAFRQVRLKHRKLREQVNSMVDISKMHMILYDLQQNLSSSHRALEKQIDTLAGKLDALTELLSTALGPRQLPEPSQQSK
compound,measurement,setting,value
lysophosphatidic acid [LPA],effect on [Ca2+]i (Fluo-3 fluorescence),human SS red cells,elevated
same,NPo after exposure,[1],0.82±0.18
same,increase in NPo,[1],16 fold
"CC(C)C[C@H]1NC(=O)[C@H](NC(=O)CN)CSSC[C@H]2NC(=O)[C@H]3CSSC[C@H](C(=O)N[C@H](CC(N)=O)C(=O)N[C@H](Cc4ccccc4)C(=O)N[C@H](CO)C(=O)N[C@H](Cc4ccccc4)C(N)=O)NC(=O)[C@@H](CC(C)C)NC(=O)[C@@H](CCCCN)NC(=O)[C@@H](Cc4ccccc4)NC(=O)[C@@H](CC(C)C)NC(=O)[C@@H](CCCCN)NC(=O)[C@@H](CO)NC(=O)[C@@H](CSSC[C@@H](NC(=O)[C@@H](CCCCN)NC(=O)[C@@H](Cc4c[nH]c5ccccc45)NC(=O)[C@@H](Cc4c[nH]c5ccccc45)NC(=O)[C@@H](Cc4ccccc4)NC(=O)[C@@H](CCC(=O)O)NC1=O)C(=O)N[C@H](CC(N)=O)C(=O)N1CCC[C@@H]1C(=O)N[C@H](CC(N)=O)C(=O)N[C@H](CC(=O)O)C(=O)N[C@H](CC(=O)O)C(=O)N[C@H](CCCCN)C(=O)N3)NC(=O)[C@@H](CCCCN)NC(=O)[C@@H](CC(C)C)NC(=O)[C@@H](CCCCN)NC(=O)[C@H]1CCCN1C(=O)[C@@H](CCCNC(=N)N)NC2=O [D-GsMTx4] (H-G[dC][dL][dE][dF][dW][dW][dK][dC][dN][dP][dN][dD][dD][dK][dC][dC][dR][dP][dK][dL][dK][dC][dS][dK][dL][dF][dK][dL][dC][dN][dF][dS][dF]-NH2; disulfide 2-17, 9-23, 16-30 (inferred); N-terminus and C-terminus assumed)",clinical signs,"mice; IV 9 mg/kg (highest dose), mice",slight tremors and decreased activity
same,duration of clinical signs after injection,"mice; IV 9 mg/kg, mice",~0.5 h
same,mortality,"mice; IV 9, 5, 3 and 1 mg/kg, mice, 1 hour",No animals died
same,time by which all mice appeared normal,"mice; IV, all doses",≤ 1 h
same,behavior changes,ferrets,no behavior changes
same,"changes in QT intervals, arterial pressure and core temperature",ferrets; 24 hours,No statistically significant changes
same,effect on neurite length,neurite,no significant effect
same,neurite initiation,neurite,did not stimulate
same,clinical signs,"rats; IV 9 mg/kg (highest dose), rat, remained for the 60 minute test duration","slow respiration, refusal to ambulate, decreased muscle tone"
same,mortality,"rats; IV 9, 3 and 1 mg/kg, rats, 1 hour",No animals died
same,mortality,"[2]; 5 mg/kg IV, 50 mg/kg subQ, 50 mg/kg GI lavage, 24 hour",No animals died
same,time of peak in all tissues,"[2]; 5 mg/kg IV, mice",about 2 hrs
same,concentration in tissues,"[2]; 50 mg/kg GI lavage, mice",almost no measurable concentration
same,time of peak in all tissues,"[2]; 50 mg/kg subQ, mice",about 2 hrs
same,distribution pattern among tissues,"[2]; IV and subQ, 7 tissues",liver received the most while brain received the least
same,course of tissue concentration after peak,"[2]; IV and subQ, 24 hr",plateaued
same,course of blood concentration after peak,"[2]; IV and subQ, over 24 hrs",decreased exponentially
same,Tmax,"[2]; sc, 50 mg/kg subQ, mice",≤ 2 h
same,Tmax,"[2]; 5 mg/kg IV, mice",≤ 2 h
same,effective half life of bound drug,[2]; suggested by the distribution data,very long
same,ability to inhibit mechanically activated ion channels compared with wild type peptide (L-form),[3]; Suchyna et al 2004,similar
same,effect on mechanosensitive channel (MSC) activity,[3]; previously shown,block
same,toxicity,mdx mice,No apparent toxicity
Grammastola spatulata mechanotoxin 4 (GsMTx4) (peptide),"LPA-induced cation conductance (NPo), on-cell patch on human SS red cells",[4],97 % inhibited
same,"NPo of deoxygenation-induced cation conductance, on-cell patch on human SS red cells, Na methanesulfonate in pipette and bath",[5],0.003 NPo
charybdotoxin,effect on A23187-stimulated 86Rb+ influx,KCa3.1,completely inhibited
